{
  "source": "patent US7241733B2",
  "about": "“Mammalian EPO mimetic CH1 deleted mimetibodies, compositions, methods and uses” (Centocor, Inc., priority 2003, dated 2007)",
  "key": {"[1]": {"settings": "50% serum; cited from earlier work"}, "normal mice": {"tested_on": "normal mice", "experiment": "in vivo erythropoiesis (hematocrit) in normal mice", "settings": "equal activity units", "method": "(§1) In vivo studies were done in normal mice to compare the half-life of EMP-NfusCG1 to that of rHuEPO and to compare their effects on erythropoiesis. […] Also seen in preliminary studies, when rHuEPO was dosed at 2000 U/kg the hematocrit of the mice was maximally elevated on day 4 and fell back to near baseline levels by day 7. […] The difference in molecular weights was also taken into consideration (rHuEPO=30,400 daltons, EMP-NfusCG1=62,200 daltons)."}, "[2]": {"experiment": "serum concentrations measured by ELISA in normal mice", "type": "in vivo", "method": "as §1\nThe serum concentrations of both rHuEPO and EMP-NfusCG1 were measured by ELISA. […] This is consistent with the expected 2 to 8 hour half-life of rHuEPO in rodents. (PRI Expert Report, Part IC2: Toxico-Pharmacological Documentation). In contrast, levels of EMP-NfusCG1 as high as 1.5 ug/mL were detected on day 4 and remained high through the end of the study. The linearity of the clearance profile in FIG. 6 is unusual. It may be that, since the first time point was 3 days after the last injection, the maximum concentration (Cmax) was reached before the first sample was taken and therefore the peak of the exponential curve was not observed. Another explanation is that the absorption and elimination profiles of this novel construct are such that the clearance profile appears linear."}, "[3]": {"tested_on": "cells that express the EPO receptor", "experiment": "complement lysis of cells that express the EPO receptor", "type": "cell-based", "settings": "preliminary studies", "text": "It has been shown that mutation of two […] (L) residues, L234 & L235, in the IgG1 lower hinge region to alanine (A) will abrogate the ability of the immunoglobulin to mediate complement dependent cytotoxicity (CDC) and antibody dependant cellular cytotoxicity (ADCC) (Hezereh et al., 2001, J. Virol., vol. 75 (24), 12161-68). […] This may be due to the low number of receptors that are found on erythroid progenitor cells. In addition the in vivo expansion of erythriod progenitors as evidenced by significant increases in hematocrit supports the possible functional irrelevance of immune effector functions. However, while no effector function associated affects have been observed, there remains an interest in introducing these mutations as a precautionary step."}, "[4]": {"tested_on": "EPO dependent UT-7/EPO cell line", "experiment": "in vitro bioactivity assay: UT-7/EPO cell viability after rHuEPO withdrawal (MTS)", "type": "cell-based, human", "method": "The activity of EMP-NfusCG1 was first tested in an in vitro bioactivity assay. For this assay, the EPO dependent UT-7/EPO cell line, derived from a patient with acute megakaryoblastic leukemia, was used (Komatsu et al., 1993, Blood, vol. 82 (2), 456-464). These cells undergo programmed cell death 48 to 72 hours after withdraw from media supplemented with rHuEPO. Cells that have been incubated in the absence of rHuEPO for 24 hours can be saved if treated with rHuEPO or an EPO agonist. EMP-NfusCG1 was added to cells starved without rHuEPO and cell viability was determined 48 hours after treatment using the tetrazolium compound MTS (CellTiter 96 Aqueous One Solution, Promega) that is metabolized by living cells to yield a product with an absorbance that can be measured. […] In addition, these same cells were stimulated with EMP-NfusCG1 and tyrosine phosphorylation patterns visualized by running cell lysate through a polyacrylamide gel."}},
  "note": "Entries after “also recorded” stand apart in the source; their conditions may differ.",
  "data": [
    {"substance": "EMP-1: 20 amino acid peptide with no sequence homology to HuEPO, able (as a dimer) to activate the EPO receptor (GGTYSCHFGPLTWVCKPQGG)", "values": [
      {"measurement": "ex-vivo half-life", "setting": "[1]", "value": 8, "unit": "h"}
    ]},
    {"substance": "EMP-NfusCG1: EMP-1 peptide, two Gly-Gly-Gly-Ser repeats, human J region, IgG1 hinge, CH2 and CH3; SEQ ID NO:50", "values": [
      {"measurement": "duration of hematocrit response compared to rHuEPO", "setting": "normal mice", "value": "elevated levels are maintained for a longer period; also recorded: prolonged"},
      {"measurement": "maximal hematocrit response compared to rHuEPO", "setting": "normal mice", "value": "significantly higher maximal hematocrit; also recorded: higher maximal response"},
      {"measurement": "serum level detected on day 4", "setting": "[2]; day 4, ELISA", "value": "≤ 1500", "unit": "ng/mL"},
      {"measurement": "approximate half-life", "setting": "[2]; normal mice, calculated from serum clearance profile", "value": "~259", "unit": "h"},
      {"measurement": "complement lysis of cells that express the EPO receptor", "setting": "[3]", "value": "does not mediate complement lysis"}
    ]},
    {"substance": "EMP-NfusCG4: identical to EMP-NfusCG1 except that the hinge and constant regions are of the G4 subtype; SEQ ID NO:51", "values": [
      {"measurement": "EC50", "setting": "[4]; average", "value": 0.35, "unit": "nM"},
      {"measurement": "potency relative to EMP-NfusCG1 (fold less), on average", "setting": "[4]; average of assays", "value": "about 10 fold"},
      {"measurement": "expected difference to rHuEPO", "setting": "[4]; worked out from 10 fold vs EMP-NfusCG1 and 5 fold vs rHuEPO", "value": "about 50 fold"}
    ]}
  ]
}
